Measured values from patent publication US9617244B2, “Antibacterial quinoline derivatives” (JANSSEN PHARMACEUTICA NV, priority 2012, dated 2017).
In brackets after ≈: the same amount, converted by molar mass. Where a name gives a salt, the structure may show the parent alone.

What was measured:
[1] = test system: Mycobacterium smegmatis (ATCC607); assay: In-vitro anti-bacterial activity against strain M. Smegmatis ATCC607; assay type: cell-based; settings: 90% inhibitory concentration for bacterial growth, Alamar Blue fluorescence; for IC90 MSM 607: 48 hours; for IC90: Mycolicibacterium smegmatis, ATCC607, 48 h, read-out: IC90 MSM 607
Procedure, shortened: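 IC90 (μg/ml) derived from Alamar Blue fluorescence (530/590 nm) after 48 h growth at 37 °C under 5% CO2. About 250 CFU per well in Mueller-Hinton broth faced five-fold serial compound dilutions in BSA-containing wells.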

[2] = test system: Staphylococcus aureus (ATCC29213); assay: In-vitro anti-bacterial activity, microtitre plate assay, IC90 determination (non-mycobacterial strains); assay type: cell-based; settings: 90% inhibitory concentration for bacterial growth, resazurin fluorescence; for IC90 STA B29213: 24 hours; for IC90: Staphylococcus aureus, ATCC29213, 24 h, read-out: IC90 STA B29213
Procedure, shortened: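 Growth inhibition measured fluorometrically with resazurin (530/590 nm) after overnight 37 °C incubation under normal atmosphere. Bacteria added at roughly 100 TCID50 per well in Mueller-Hinton broth to five-fold compound dilution series; IC90 reported in μg/ml.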

| melting point [°C] | IC90 MSM 607 [1] [µg/mL] | IC90 STA B29213 [2] [µg/mL] | IC90 [1] [µg/mL] | IC90 [2] [µg/mL] | Structure (SMILES) |
| --- | --- | --- | --- | --- | --- |
| 209 |  |  |  |  | COc1nc2ccc(F)cc2cc1C(c1ccc(Cl)cc1)C1(O)CCNC(Cc2ccccc2)C1 (stereo not drawn) (as salt: fumarate) [Compound 54] |
| 120 |  |  |  |  | COc1nc2ccc(F)cc2cc1C(c1ccc(Cl)cc1)C1(O)CCNC(Cc2ccccc2)C1 (stereo not drawn) (as salt: fumarate) [Compound 55] |
| 141 |  |  |  |  | CCCN(C)CC1CC(O)(C(c2ccc(Cl)cc2)c2cc3cc(Cl)ccc3nc2OC)CCN1 (stereo not drawn) (as salt: fumarate) [Compound 64] |
|  | 1.55 (≈ 3.16 µM) | 3.09 (≈ 6.29 µM) |  |  | COc1nc2ccc(F)cc2cc1C(c1ccc(Cl)cc1)C1(O)CCNC(Cc2ccccc2)C1 (stereo not drawn) [Compound 370] |
|  | 2.77 (≈ 5.01 µM) | 3.49 (≈ 6.31 µM) |  |  | COc1nc2ccc(Br)cc2cc1C(c1ccc(Cl)cc1)C1(O)CCNC(Cc2ccccn2)C1 (stereo not drawn) [Compound 379] |
|  | 4.10 (≈ 7.42 µM) | 5.16 (≈ 9.33 µM) |  |  | COc1nc2ccc(Br)cc2cc1C(c1ccc(Cl)cc1)C1(O)CCNC(Cc2ccccn2)C1 (stereo not drawn) [Compound 380] |
|  | 1.75 (≈ 3.17 µM) | 3.49 (≈ 6.31 µM) |  |  | COc1nc2ccc(Br)cc2cc1C(c1ccc(Cl)cc1)C1(O)CCNC(Cc2ccccn2)C1 (stereo not drawn) [Compound 381] |
|  |  |  | 2.18 (≈ 3.98 µM) | 3.45 (≈ 6.31 µM) | COc1nc2ccc(SC(C)C)cc2cc1C(c1ccc(Cl)cc1)C1(O)CCNC(Cc2ccccc2)C1 (stereo not drawn) [Compound 382] |
|  | 2.74 (≈ 5.01 µM) | 3.45 (≈ 6.31 µM) |  |  | COc1nc2ccc(SC(C)C)cc2cc1C(c1ccc(Cl)cc1)C1(O)CCNC(Cc2ccccc2)C1 (stereo not drawn) [Compound 383] |
|  | 2.18 (≈ 3.98 µM) | 3.45 (≈ 6.31 µM) |  |  | COc1nc2ccc(SC(C)C)cc2cc1C(c1ccc(Cl)cc1)C1(O)CCNC(Cc2ccccc2)C1 (stereo not drawn) [Compound 384] |
|  | 1.37 (≈ 2.5 µM) | 1.73 (≈ 3.16 µM) |  |  | COc1nc2ccc(SC(C)C)cc2cc1C(c1ccc(Cl)cc1)C1(O)CCNC(Cc2ccccc2)C1 (stereo not drawn) [Compound 385] |
|  |  |  | 5.75 (≈ 12.6 µM) | 5.75 (≈ 12.6 µM) | COc1nc2ccc(SC)cc2cc1C(c1ccc(Cl)cc1)C1(O)CCNCC1(C)C (stereo not drawn) [Compound 396] |
|  | 8.66 (≈ 17.6 µM) | 9.72 (≈ 19.7 µM) |  |  | COc1nc2ccc(Cl)cc2cc1C(c1ccc(Cl)cc1)C1(O)CCNC(c2ccccc2)C1 (stereo not drawn) [Compound 403] |
|  | 1.68 (≈ 3.4 µM) | 2.99 (≈ 6.06 µM) |  |  | COc1nc2ccc(Cl)cc2cc1C(c1ccc(Cl)cc1)C1(O)CCNC(c2ccccc2)C1 (stereo not drawn) [Compound 404] |
|  | 2.63 (≈ 5.33 µM) | 5.26 (≈ 10.7 µM) |  |  | COc1nc2ccc(Cl)cc2cc1C(c1ccc(Cl)cc1)C1(O)CCNC(c2ccccc2)C1 (stereo not drawn) [Compound 405] |

The remaining lines, values behind:

| Structure (SMILES) | melting point [°C] | IC90 MSM 607 [1] [µg/mL] | IC90 STA B29213 [2] [µg/mL] | IC90 [1] [µg/mL] | IC90 [2] [µg/mL] |
| --- | --- | --- | --- | --- | --- |
| COc1nc2ccc(Br)cc2cc1C(c1cccc(Cl)c1)C1(O)CCNC(Cc2ccccc2)C1 (stereo not drawn) (as salt: fumarate) [Compound 35] | 145 |  |  |  |  |
| COc1nc2ccc(Br)cc2cc1C(c1ccc(Cl)cc1)C1(O)CCN(Cc2ccccc2)C(Cc2ccccc2)C1 (stereo not drawn) (as salt: fumarate) [Compound 76] | 148 |  |  |  |  |
| COc1nc2ccc(Br)cc2cc1C(c1ccc(Cl)cc1)C1(O)CCNC(Cc2ccccc2)C1 (stereo not drawn) (as salt: fumarate) [Compound 77] | 155 |  |  |  |  |
| O=c1[nH]c2ccc(F)cc2cc1C(c1ccc(Cl)cc1)C1(O)CCNC(Cc2ccccc2)C1 (stereo not drawn) [Compound 375] |  | 12.90 (≈ 27 µM) | >12.90 |  |  |
| O=c1[nH]c2ccc(F)cc2cc1C(c1ccc(Cl)cc1)C1(O)CCNC(Cc2ccccc2)C1 (stereo not drawn) [Compound 376] |  | 2.57 (≈ 5.39 µM) | 3.24 (≈ 6.79 µM) |  |  |
| Cc1cc(F)ccc1C1CC(O)(C(c2ccc(S(C)(=O)=O)cc2)c2cc3cc(Cl)ccc3[nH]c2=O)CCN1 (stereo not drawn) [Compound 377] |  |  |  | > 14.9 | > 14.9 |
| Cc1cc(F)ccc1C1CC(O)(C(c2ccc(S(C)(=O)=O)cc2)c2cc3cc(Cl)ccc3[nH]c2=O)CCN1 (stereo not drawn) [Compound 378] |  | 11.80 (≈ 21.3 µM) | 14.86 (≈ 26.8 µM) |  |  |
| C=CCC1CNCCC1(O)C(c1cccc(Cl)c1)c1cc2cc(Cl)ccc2nc1OC (stereo not drawn) [Compound 394] |  |  |  | 2.29 (≈ 5.01 µM) | 2.89 (≈ 6.32 µM) |
| COc1nc2ccccc2cc1C(c1ccccc1)C1(O)CCNC(Cc2ccccc2)C1 (stereo not drawn) [Compound 399] |  |  |  | > 12.5 | > 12.5 |
| COc1nc2ccccc2cc1C(c1ccccc1)C1(O)CCNC(Cc2ccccc2)C1 (stereo not drawn) [Compound 400] |  | >12.47 | >12.47 |  |  |
| COc1nc2ccccc2cc1C(c1ccccc1)C1(O)CCNC(Cc2ccccc2)C1 (stereo not drawn) [Compound 401] |  | >12.77 | >12.77 |  |  |
| COc1nc2ccccc2cc1C(c1ccccc1)C1(O)CCNC(Cc2ccccc2)C1 (stereo not drawn) [Compound 402] |  | 12.47 (≈ 28.4 µM) | >12.47 |  |  |
